{
  "source": "paper PMC9845330",
  "about": "(Communications Biology, 2023)",
  "key": {"HBEC cells": {"system": "HBEC cells", "assay": "In vitro saporin delivery, cell viability (CellTiter-GLO)", "assay_type": "cell-based, human", "settings": "saporin conjugate, 6 h exposure, viability at 72 h", "method": "The ability of MGS4_V8-saporin conjugate to induce cell death was determined.\nBiotinylated peptide was conjugated to streptavidin-saporin (Advanced Targeting Systems Bio, San Diego, CA) in a 1:1 molar ratio. Increasing doses of peptide-drug conjugate in triplicate were incubated on the cells for 6 h at 37 °C. The drug was removed and replaced with complete growth media. After 72 h, cell viability was measured using CellTiter-GLO® (Promega, Madison, WI). Cell viability was normalized to untreated cells. IC50s were calculated using GraphPad Prism® using log(agonist) vs. response–Variable slope (four parameters). […]\nM GS4_V4 (non-acetylated, panel a) and M GS4_V8 (acetylated, panel b ) were incubated in 100% human serum for 0 and 48-hours. Serum proteins were precipitated, and the peptide was analyzed by analytical\nHPLC. The mass of the peptide and degradation products were determined by MALDI MS and are […]\nMGS4_V8, MGS4_V9, or MGS4_V10 were conjugated with streptavidin-Alexa Fluor 650 and were incubated with the indicated cell line for 1 hour. Non-internalized peptide was rem ov ed, and the mean number of peptides internalized per cell was determined to calculate the EC50. […]\nSupplemental Figure 4 : Peptide-Streptavidin conjugates are nontoxic to cells. a. […] After 72 hours, viability was measured. […]"}, "H1299 cells": {"system": "H1299 cells", "assay": "Cell internalization by flow cytometry, absolute uptake (molecules per cell) of peptide-streptavidin-Alexa Fluor 647", "assay_type": "cell-based, human", "settings": "for Molecules Internalized Per Cell: Average", "excerpt": "Optimizing MGS4 as a monomer is efficient but the optimal valency of the truncated peptide may be different than that of the full-length peptide. The peptide was synthesized as a monomer (MGS4_V8), dimer (MGS4_V9), and tetramer (MGS4_V10). To obtain quantitative data, we moved from measuring the relative fluorescence of dye-labeled peptide to the determination of the average number of dye molecules internalized per cell. […] The dimer MGS4_V9 has an EC50 7-fold lower indicating there is a synergistic effect in going from a monomer to a dimer (Fig. 2a and Table 2). However, there is only a 2-fold decrease in going from a dimer to a tetrameric peptide (MGS4_V10). We also calculated the EC50 on three other NSCLC cell lines (Table 2 and Supplementary Figure 3). […] The average number of peptides internalized per cell at saturating conditions varies, with H1993 cells internalizing the highest number of peptides at all three valencies (Table 2). This is likely due to differing levels of receptor expression on the cell type. The average molecules internalized at 50 nM in one hour follows the same trend (Fig. 2b).\nNon-internalized peptide was removed, and the mean number of peptides internalized per cell was determined to calculate the EC50. Individual measurements are shown. The mean is shown as an “X”. Error bars, in black, represent standard error measurements and are below the height of the symbols in some cases. b The average number of peptide molecules per cell at 50 nM at 1 h was determined on four NSCLC cell lines and one normal human bronchial epithelial cell line (HBEC). Error bars represent SEM and individual data points are shown. c H1299 cells were incubated with 50 nM peptide-Streptavidin-Qdot605 for 1 h, removed, and replaced with normal growth media. After 24 h, cells were fixed, and counterstained with DAPI (blue). Representative maximally projected z-stacks for each group reveal no apparent difference in peptide internalization or localization. The scale bar represents 10 µm.\nBiotinylated peptide was conjugated to streptavidin-R-phycoerythrin or streptavidin-Alexa Fluor 647 (1:1 molar ratio) for 30 min. The open binding sites on streptavidin were quenched with RPMI 1640 and diluted to the indicated concentration. Tumor cells were grown to 90% confluency in a 12 well plate, then incubated with 500 µl peptide-dye conjugate at 37 °C. After 1 h, peptide was removed, and the cells were washed 3x with PBS (137 mM NaCl, 2.7 mM KCl, 10 mM Na2HPO4, 1.8 mM KH2PO4, pH 7.4), 2x with 0.1 M HCl-glycine pH2.2 in 0.9% NaCl, and 1x PBS rinse. Cells were removed by trypsinization. Flow cytometry was performed on a BD FACSCelesta, and data were analyzed on Flowing software. Cells were gated based on the forward and side scatter to include only viable cells and a minimum of 10,000 events were counted. A region containing <5% of the cells in the negative control was established, and relative peptide uptake by the mean fluorescence intensity of that population. For absolute peptide uptake per cell, a standard curve was generated using Quantum™ Alexa Fluor 647 microspheres (Bangs Laboratory, Fishers, IN). A representative linear regression showing the correlation of molecule equivalents soluble fluorophores (MESF) vs the mean fluorescence intensity (MFI) is shown in Supplemental Figure 6. Cells were gated based on the forward and side scatter to include only viable cells and a minimum of 10,000 events were counted. MFI was determined at 50% at peak height. Molecules internalized per cell were determined by the standard curve relating MESF to MFI and divided by the number dye molecules/MGS conjugate. An example is shown in supplemental Figure 7. GraphPad Prism® was used for non-linear regression curve fitting to calculate an EC50. Parameters and statistical analysis are provided (Supplementary Tables 2–6). Experiments were repeated a minimum of three times. […]"}},
  "note": "Non-standard residues stand in square brackets, D forms with d. Residues, ends and D or L forms follow the SMILES beside them. *: point of attachment. X1 = O=C(CCCC[C@@H]1SC[C@@H]2NC(=O)N[C@@H]21)NCCCOCCOCCOCCCN*; PEG12 = NCCOCCOCCOCCOCCOCCOCCOCCOCCOCCOCCOCCOCCC(=O)O",
  "data": [
    {"molecule": "CC(=O)N[C@@H](Cc1ccccc1)C(=O)N[C@@H](Cc1c[nH]cn1)C(=O)N[C@@H](C)C(=O)N[C@H](C(=O)N1CCC[C@H]1C(=O)N[C@@H](CCC(N)=O)C(=O)N[C@@H](CO)C(=O)N[C@@H](Cc1ccccc1)C(=O)N[C@@H](Cc1ccc(O)cc1)C(=O)N[C@H](C(=O)NCCOCCOCCOCCOCCOCCOCCOCCOCCOCCOCCOCCOCCC(=O)N[C@@H](CCC(=O)NCCCOCCOCCOCCCNC(=O)CCCC[C@@H]1SC[C@@H]2NC(=O)N[C@@H]21)C(N)=O)[C@@H](C)O)C(C)C", "note": "[MGS4_V8] (Ac-FHAVPQSFYT[PEG12]E(X1)-NH2)", "values": [
      {"measurement": "IC50", "setting": "HBEC cells", "result": "do not reach 50% cell viability"},
      {"measurement": "Molecules Internalized Per Cell", "setting": "H1299 cells; 0.01 nM", "result": 0},
      {"measurement": "Molecules Internalized Per Cell", "setting": "H1299 cells; 1 nM", "result": 88},
      {"measurement": "Molecules Internalized Per Cell", "setting": "H1299 cells; 10 nM", "result": 3648},
      {"measurement": "Molecules Internalized Per Cell", "setting": "H1299 cells; 20 nM", "result": 3316},
      {"measurement": "Molecules Internalized Per Cell", "setting": "H1299 cells; 30 nM", "result": 10700},
      {"measurement": "Molecules Internalized Per Cell", "setting": "H1299 cells; 40 nM", "result": 21020},
      {"measurement": "Molecules Internalized Per Cell", "setting": "H1299 cells; 50 nM", "result": 36807},
      {"measurement": "Saturation (molecules)", "setting": "H1299 cells; H1299 Cells, peptides internalized per cell at saturation", "result": "40,400 ± 5100 molecules"},
      {"measurement": "HillSlope", "setting": "H1299 cells; Supplementary Table 3", "result": 5.657},
      {"measurement": "LogIC50", "setting": "H1299 cells; Supplementary Table 3", "result": -7.417},
      {"measurement": "Top", "setting": "H1299 cells; Supplementary Table 3, molecules per cell", "result": 40400}
    ]}
  ]
}
